Results as given in PMC5522996, “Big conductance calcium‐activated potassium channel openers control spasticity without sedation” (British Journal of Pharmacology, 2017).
pIC50: −log10 of the molar value.

Assays:
[1] = tested on: β2; experiment: Receptor binding profile of VSN16R; parameters: species or system human; settings: 10µM VSN16R
[2] = tested on: Cl- channel; experiment: Receptor binding profile of VSN16R; parameters: species or system human; settings: 10µM VSN16R
[3] = biological target: T1, Y1 (Homo sapiens, UniProt P25929); experiment: Receptor binding profile of VSN16R; settings: 10µM VSN16R
T1 construct: purchased Cerep; Chantest; DiscoveRx; Multispan; MDS Pharma Services

[4] = Plasma levels in toxicological studies, dogs; type: in vivo; settings: both sexes, Beagle, dog, po, 30 min following 50 mg·kg^−1 p.o., read-out: VSN16R detected in plasma
Description: Twenty‐eight day toxicology in rats and dogs for Investigational New Drug filing was performed by Charles Rivers (UK). Reproductive toxicology in rabbits was performed by Charles Rivers (Canada). Pharmacokinetic and/or toxicological doses ranged from 5 to 1000 mg·kg^−1 p.o. in Sprague Dawley male and female rats (n = 6‐26 per group), 50–200 mg·kg^−1 p.o. in male and female Beagle dogs (n = 6 per group) and 100–750 mg·kg^−1 p.o. in female New Zealand white rabbits (n = 9 per group). Results are expressed as mean ± SD.
The stability of compounds when subjected to hepatic and plasma degradation was assessed in vitro by Inpharmatica, Cambridge, UK. […] Samples were centrifuged, and the resultant supernatant analysed for parent compound. The mass responses at baseline were taken as the 100% reference values against which the disappearance of the compound was measured. […] Half‐life values were calculated from the slope of these plots. Hepatocyte metabolism was assessed by Cyprotex, Macclesfield, and 10 μM VSN16R was incubated with primary mouse, rat, monkey (Macaque) and human hepatocytes for 1 h, and the presence of metabolites was assessed using liquid […] mass spectroscopy. The stability of VSN16R was assessed in vivo by Inpharmatica, Cyprotex and Charles Rivers, Cambridge. […] Data are expressed as mean ± SEM. […]

[5] = biological target: T2, EDG1 (Homo sapiens, UniProt P21453); experiment: Receptor binding profile of VSN16R; settings: 10µM VSN16R
T2 construct: purchased Cerep; Chantest; DiscoveRx; Multispan; MDS Pharma Services

[6] = tested on: BZD; experiment: Receptor binding profile of VSN16R; parameters: species or system human; settings: 10µM VSN16R
[7] = tested on: Na+-Ca2+ exchanger; experiment: Receptor binding profile of VSN16R; parameters: species or system human; settings: 10µM VSN16R
[8] = tested on: GABAB; experiment: Receptor binding profile of VSN16R; parameters: species or system human; settings: 10µM VSN16R
[9] = biological target: T3, EDG3 (Homo sapiens, UniProt Q99500); experiment: Receptor binding profile of VSN16R; settings: 10µM VSN16R
T3 construct: purchased Cerep; Chantest; DiscoveRx; Multispan; MDS Pharma Services

[10] = biological target: CYP450 3A5 (Homo sapiens, UniProt P20815)
Description: IC50 Inhibition of substrate binding
(§1) Inhibition of binding of either 3-cyano-7-ethoxycoumarin, dibenzylfluorescein or 7-benzyoxy-4-
(§2) (trifluoromethyl) coumarin in human enzyme transfected BTI NN-5B1-4 cells or Sf9 insect cells or
(§3) inhibition of dextromethorphan substrate to CYP450 2D6 in liver microsomes.

[11] = tested on: ML1; experiment: Receptor binding profile of VSN16R; parameters: species or system human; settings: 10µM VSN16R
[12] = biological target: CYP450 2A6 (Homo sapiens, UniProt P11509); experiment: CYP450 inhibition of substrate binding
Description: IC50 Inhibition of substrate binding
as §1, §2, §3

[13] = Pharmacokinetics in rats; type: in vivo, rat
Description: The stability of compounds when subjected to hepatic and plasma degradation was assessed in vitro by Inpharmatica, Cambridge, UK. Compounds (1 μM) were incubated with either pooled mouse liver microsomes (0.1 mg protein mL^−1) or pooled mouse plasma at 37°C for 0, 5, 10, 20 and 40 min before termination with acetonitrile containing warfarin as an analytical internal standard. Samples were centrifuged, and the resultant supernatant analysed for parent compound. The mass responses at baseline were taken as the 100% reference values against which the disappearance of the compound was measured. The natural log of the % remaining values was used to generate linear plots of disappearance of the compounds. Half‐life values were calculated from the slope of these plots. Hepatocyte metabolism was assessed by Cyprotex, Macclesfield, and 10 μM VSN16R was incubated with primary mouse, rat, monkey (Macaque) and human hepatocytes for 1 h, and the presence of metabolites was assessed using liquid […] mass spectroscopy. The stability of VSN16R was assessed in vivo by Inpharmatica, Cyprotex and Charles Rivers, Cambridge. Blood (plasma) samples were obtained prior to and 5 min to 24 h after drug administration of 2–5 mg·kg^−1 i.v. or 5 mg·kg^−1 p.o. VSN16R into outbred mice and rats (n = 3 per time point). In addition, plasma, brain and spinal cord samples were obtained from ABH with spastic EAE. Immediately after blood collection, the brain and spinal cord were removed and then stored at −20°C prior to assay. Tissue samples were weighed, homogenized and centrifuged, and the lysates generated. Brain lysates and plasma were assayed by LC–MS methods by Inpharmatica/Charles Rivers, Cambridge, UK. This was also performed using a Waters Xevo TQ or API4000, AB Sciex mass spectrometer using spiked samples as standards. PK Solutions Software (Summit Research Services, Montrose, CO, USA), AB Sciex Analyst software combined with Thermo Fisher Scientific Watson LIMS processing and reporting software or WinNonLin pharmacokinetic or PK solutions 2.0 software (Summit Research Services, Montrose CO, USA) were used to produce PK parameters. Data are expressed as mean ± SEM. The detection limit of VSN16R was 2 ng·mL^−1 in plasma and brain and 14 ng·mL^−1 in spinal cords. The detection limit of VSN22R was 2 ng·mL^−1 in plasma and 0.1 ng·mL^−1 for VSN44R in plasma. Pharmacokinetics in toxicological samples in rats (n = 6 per group), dogs (n = 6 per group) and humans (n = 6 per group) were performed by Charles Rivers (Edinburgh, UK).

[14] = biological target: T4, EDG8 (Homo sapiens, UniProt Q9H228); experiment: Receptor binding profile of VSN16R; settings: 10µM VSN16R
T4 construct: purchased Cerep; Chantest; DiscoveRx; Multispan; MDS Pharma Services

[15] = first 12 h following p.o. dosing of rats

T1 sequence (P25929 whole entry): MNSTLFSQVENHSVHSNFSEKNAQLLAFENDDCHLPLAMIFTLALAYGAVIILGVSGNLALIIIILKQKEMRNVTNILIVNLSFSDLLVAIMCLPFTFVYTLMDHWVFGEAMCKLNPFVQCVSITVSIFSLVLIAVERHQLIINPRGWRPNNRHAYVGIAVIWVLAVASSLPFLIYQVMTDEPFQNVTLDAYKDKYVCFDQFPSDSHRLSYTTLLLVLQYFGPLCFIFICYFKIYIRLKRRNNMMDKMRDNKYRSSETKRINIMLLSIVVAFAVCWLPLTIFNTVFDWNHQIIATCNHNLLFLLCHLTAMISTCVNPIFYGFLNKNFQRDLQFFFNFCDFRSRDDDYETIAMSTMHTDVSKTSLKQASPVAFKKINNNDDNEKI
T4 sequence (Q9H228 whole entry): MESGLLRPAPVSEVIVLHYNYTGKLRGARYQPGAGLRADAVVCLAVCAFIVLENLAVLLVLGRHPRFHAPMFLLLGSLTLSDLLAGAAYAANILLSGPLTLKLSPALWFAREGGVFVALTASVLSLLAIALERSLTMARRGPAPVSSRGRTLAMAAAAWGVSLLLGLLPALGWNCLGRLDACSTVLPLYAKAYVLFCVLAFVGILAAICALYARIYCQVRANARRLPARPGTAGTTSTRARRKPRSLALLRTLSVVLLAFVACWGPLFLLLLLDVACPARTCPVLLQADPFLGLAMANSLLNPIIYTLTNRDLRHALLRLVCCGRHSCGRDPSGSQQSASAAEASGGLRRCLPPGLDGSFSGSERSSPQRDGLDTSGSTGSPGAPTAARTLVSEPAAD
T2 sequence (P21453 whole entry): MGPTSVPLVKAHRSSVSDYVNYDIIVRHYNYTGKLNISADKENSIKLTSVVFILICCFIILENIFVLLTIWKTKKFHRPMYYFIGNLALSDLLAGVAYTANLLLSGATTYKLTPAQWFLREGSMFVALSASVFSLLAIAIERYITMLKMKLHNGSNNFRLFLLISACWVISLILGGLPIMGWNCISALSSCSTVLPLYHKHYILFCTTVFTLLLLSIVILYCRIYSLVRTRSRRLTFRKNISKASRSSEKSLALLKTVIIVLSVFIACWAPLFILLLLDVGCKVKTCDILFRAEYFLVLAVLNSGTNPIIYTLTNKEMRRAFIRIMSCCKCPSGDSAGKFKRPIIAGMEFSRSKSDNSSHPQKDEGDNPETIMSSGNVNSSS
CYP450 2A6, sequence (P11509 whole entry): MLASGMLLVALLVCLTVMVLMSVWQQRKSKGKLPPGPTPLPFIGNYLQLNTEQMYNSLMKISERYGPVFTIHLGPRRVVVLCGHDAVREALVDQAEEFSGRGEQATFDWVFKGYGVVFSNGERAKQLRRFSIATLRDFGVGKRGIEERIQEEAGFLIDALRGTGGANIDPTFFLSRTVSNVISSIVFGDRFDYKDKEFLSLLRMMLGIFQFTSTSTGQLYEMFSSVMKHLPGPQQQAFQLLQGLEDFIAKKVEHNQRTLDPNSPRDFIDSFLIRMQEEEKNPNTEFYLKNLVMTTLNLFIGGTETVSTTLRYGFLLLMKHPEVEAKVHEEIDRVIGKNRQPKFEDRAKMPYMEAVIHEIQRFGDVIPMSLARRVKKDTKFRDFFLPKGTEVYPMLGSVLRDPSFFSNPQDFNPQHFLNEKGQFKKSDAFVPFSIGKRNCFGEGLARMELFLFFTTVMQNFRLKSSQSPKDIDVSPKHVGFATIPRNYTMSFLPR
CYP450 3A5, sequence (P20815 whole entry): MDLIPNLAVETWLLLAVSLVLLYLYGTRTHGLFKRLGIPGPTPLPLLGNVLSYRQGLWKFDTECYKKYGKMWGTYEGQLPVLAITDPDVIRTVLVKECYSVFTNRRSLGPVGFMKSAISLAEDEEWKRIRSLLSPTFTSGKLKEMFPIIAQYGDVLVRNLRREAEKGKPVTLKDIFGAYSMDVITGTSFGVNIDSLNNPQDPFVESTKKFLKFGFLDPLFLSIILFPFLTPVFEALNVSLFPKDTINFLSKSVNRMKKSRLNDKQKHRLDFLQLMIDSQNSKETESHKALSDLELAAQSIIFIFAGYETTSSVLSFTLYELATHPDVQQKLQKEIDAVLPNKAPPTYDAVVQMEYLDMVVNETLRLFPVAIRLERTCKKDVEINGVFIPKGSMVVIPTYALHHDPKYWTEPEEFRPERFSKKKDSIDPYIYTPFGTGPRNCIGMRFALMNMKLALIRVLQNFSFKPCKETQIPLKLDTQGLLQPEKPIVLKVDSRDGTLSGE
T3 sequence (Q99500 whole entry): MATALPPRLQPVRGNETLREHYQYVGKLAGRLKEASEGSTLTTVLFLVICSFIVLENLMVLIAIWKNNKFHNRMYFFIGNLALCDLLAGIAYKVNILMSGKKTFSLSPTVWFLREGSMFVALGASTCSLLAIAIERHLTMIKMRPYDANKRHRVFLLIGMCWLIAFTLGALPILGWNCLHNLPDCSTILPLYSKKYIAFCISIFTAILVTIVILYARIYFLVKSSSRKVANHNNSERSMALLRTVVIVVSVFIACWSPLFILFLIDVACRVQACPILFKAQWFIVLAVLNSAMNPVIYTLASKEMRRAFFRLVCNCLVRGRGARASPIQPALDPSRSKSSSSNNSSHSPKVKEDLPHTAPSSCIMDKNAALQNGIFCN

C[C@H](CO)NC(=O)c1cccc(/C=C\CCCC(=O)N(C)C)c1 [VSN16R]
Activity [1]: Negligible Activity
Activity [2]: Negligible Activity
Activity [3]: Negligible Activity
concentration at 30 min [4]: 82 µM
Activity [5]: Negligible Activity
Activity [6]: Negligible Activity
Activity [7]: Negligible Activity
Activity [8]: Negligible Activity
Activity [9]: Negligible Activity
pIC50 [10]: < 5.00
Activity [11]: Negligible Activity
pIC50 [12]: < 5.00
Faecal elimination [13, 15]: approximately 1 % of the dose
Renal excretion [13, 15]: less than 0.5 % of the dose
bioavailability ([13]; in vivo, po, 5 mg·kg^−1 p.o., rat): 40%
half-life ([13]; rat, plasma, po, 5 mg·kg^−1 p.o., rats, read-out: Elimination half‐life): 43 min
Activity [14]: Negligible Activity
